Measured values from ChEMBL document CHEMBL1144759, “Neuroprotective limonoids of root bark of Dictamnus dasycarpus” (J Nat Prod, 2008).
Where a name gives a salt, the structure may show the parent alone.

Legend:
[1] = Neuroprotective activity against rat cortical cells assessed as glutamate-induced neurotoxicity by MTT assay; type: functional, cell-based
[2] = Neuroprotective activity against rat cortical cells at 0.1 uM assessed as glutamate-induced neurotoxicity by MTT assay; type: functional
[3] = Neuroprotective activity against rat cortical cells at 1.0 uM assessed as glutamate-induced neurotoxicity by MTT assay; type: functional
[4] = Neuroprotective activity against rat cortical cells at 10.0 uM assessed as glutamate-induced neurotoxicity by MTT assay; type: functional

SMILES	EC50 [1] [nM]	Emax at 0.1 µM [2] [%]	Emax at 1 µM [3] [%]	Emax at 10 µM [4] [%]
CC1=C2C(=O)O[C@@H](c3ccoc3)[C@]2(C)CC[C@@H]1O	98	51.1	–	–
CC1=C2C(=O)O[C@@H](c3ccoc3)[C@]2(C)CC[C@H]1O[C@@H]1O[C@H](CO)[C@@H](O)[C@H](O)[C@H]1O	705	–	53	–
CC1=CCC[C@@]2(C)[C@H](c3ccoc3)OC(=O)[C@H]3O[C@]132 [CALODENDROLIDE]	19	71.9	–	–
CC1=C2[C@@H](O)C(=O)O[C@@H](c3ccoc3)[C@]2(C)CC[C@@H]1O [DICTAMDIOL A]	68	68.1	–	–
CC1=C2[C@H](O)C(=O)O[C@@H](c3ccoc3)[C@]2(C)CC[C@H]1O [DICTAMDIOL B]	–	45.6	–	–
CC1=C2[C@H](O)C(=O)O[C@@H](c3ccoc3)[C@]2(C)CC[C@@H]1O [DICTAMDIOL]	–	35.3	–	–
C[C@H]1C2=C(O)C(=O)O[C@@H](c3ccoc3)[C@]2(C)CC[C@@H]1O[C@@H]1O[C@H](CO)[C@@H](O)[C@H](O)[C@H]1O [DICTAMNUSINE]	42	62.1	–	–
C[C@]12N[C@H](Cc3ccccc31)c1ccccc12 [DIZOCILPINE MALEATE]	480	–	–	83.8
CC1=C2C(=O)O[C@@H](c3ccoc3)[C@]2(C)CCC1 [FRAXINELLONE]	22	70.4	–	–
CC1=C2C(=O)O[C@@H](c3ccoc3)[C@]2(C)CCC1=O [FRAXINELLONONE]	–	–	47.6	–
CC1(C)O[C@H]2CC(=O)OC[C@]23[C@H]2CC[C@@]4(C)[C@H](c5ccoc5)OC(=O)[C@H]5O[C@]54[C@]2(C)C(=O)C[C@@H]13 [LIMONIN]	18	75.9	–	–
CC1(C)OC(=O)C=C[C@]2(C)[C@H]3CC[C@@]4(C)[C@H](c5ccoc5)OC(=O)[C@H]5O[C@]54[C@]3(C)C(=O)C[C@@H]12 [OBACUNONE]	39	63.9	–	–
CC1(C)O[C@H]2CC(=O)OC[C@]23[C@H]2CC[C@@]4(C)[C@H](c5ccoc5)OC(=O)[C@H]5O[C@]54[C@]2(C)[C@@H](O)C(=O)[C@@H]13 [RUTAEVIN]	3060	–	–	65.4
